≈ marks a conversion by molar mass, not a printed value. *1 amine or outer side, *2 acyl side, *3 side chain or, on linkers, in order; H or OH if unused. Where a SMILES comes first, the peptide text is derived from it. [ ]: non-standard residue; d: D form. The star is where a group is joined. X1 = O=C([C@H](CCCCNCS(=O)(=O)O)N[*:1])[*:2]; Octanoyl = CCCCCCCC(=O)*
What was measured:
[1] = test system: P. aeruginosa strain ATCC 27853; format: cell-based; conditions: ATCC 27853
How it was run: (§1)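 Peptides serially diluted 1:2 to final 0.25–256 μg/ml in Mueller Hinton broth, inoculated with 1-5×10^5 CFUs/ml from mid-log culture. Incubated 16-20 hours at 37° C. MIC = lowest peptide concentration giving a clear well.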

C. albicans ATCC 90028 = format: cell-based; conditions: ATCC 90028
Procedure: The procedure for the anti-bacterial assay is based upon the guidelines of the National Committee for Clinical Laboratory Standards, Document M7-T2, Volume 8, No. 8, 1988, which document is entirely incorporated herein by reference.
Stock solutions of peptides, with and without the appropriate substitutions, were prepared at a concentration of 512 μg/ml in sterile deionized distilled water and stored at −70° C.
The stock peptide solution was diluted in serial dilutions (1:2) down the wells of a microtiter plate so that the final concentrations of peptides in the wells were 0.25, 0.50, 1, 2, 4, 8, 16, 32, 64, 128 and 256 μg/ml. 1-5×10^5 CFUs/ml of either S. aureus ATCC 25923, E. coli ATCC 25922, P. aeruginosa ATCC 27853, or C. albicans, were added to the wells in full strength Mueller Hinton broth (BBL 11443) from a mid-log culture. The inoculum was standardized spectrophotometrically at 600 nm and was verified by colony counts. The plates were incubated for 16-20 hours at 37° C., and the minimal inhibitory concentration (MIC) for each peptide was determined. Minimal inhibitory concentration is defined as the lowest concentration of peptide which produces a clear well in the microtiter plate. The minimal inhibitory concentration of each of the peptides with and/or without the appropriate substitutions is given in Table I below.
The in vitro anti-microbial activities of the methane sulfonate derivatives were determined according to the methods described in Examples 1 and 2. The activities against ATCC strains of S. aureus, E. coli, P. aeruginosa, and C. albicans, and the hemolysis of red blood cells were compared to the parent compound (Table IV). The activities for Compound 843 (Oct-SEQ ID NO:143) methane sulfonate against clinical strains of P. aeruginosa isolated from cystic fibrosis patients were compared to the parent compound (Table V). The activity for Compound 469 (Oct-SEQ ID NO:27) methane sulfonate against P. gingivalis was compared to the parent compound (Table VI).

S. aureus ATCC 29213 = format: cell-based; conditions: ATCC 29213
[2] = test system: E. coli ATCC strain 25922; experiment: Minimal Inhibitory Concentration, microtiter broth dilution; format: cell-based; conditions: ATCC strain 25922
How it was run: as §1

[3] = MTD of repeat-dose intraperitoneal administration; format: in vivo, SCID mice; conditions: 135 mg/kg/week, three injections per week i.p.
Procedure: Determinations of a maximal tolerated dose (MTD) of repeat-dose intraperitoneal (i.p.) administration of MSI-344 or MSI-1857 in 60 SCID mice were done. Mice were injected with various doses of MSI-344 or MSI-1857 twice or thrice per week. Survival and body weight were monitored. On a twice per week dosing schedule, the MTDs of MSI-344 and MSI-1857 were 12 and 134 mg/kg/week, respectively. […] On a thrice per week dosing schedule, no deaths occurred in any groups, with high dose groups of MSI-344 and MSI-1857 receiving 90 mg/kg/week and […], respectively. A transient body weight loss was seen after initial dosing in most MSI-344 and MSI-1857 groups. No body weight loss greater than 6% occurred in any group on the thrice per week dosing schedule.
To determine estimates of MTDs of MSI-344 and MSI-1857 when administered intraperitoneally on repeat-dose regimens in SCID mice. The selection of SCID mice was based on the future plans of using this strain as host for xenograft human tumor efficacy models, and a pre-requisite for determining MTD for chronic administration that may be used during the efficacy model.
SCID mice are immunocompromised and therefore they were housed and handled in sterile environments. They had access to sterile water and sterilized chow ad lib.
A 1 mg/mL solution of MSI-344 was made in saline (0.9% sodium chloride injection USP, Abbott, North Chicago, Ill.) corrected for peptide content. Solutions of MSI-344 at concentrations of 0.6, 0.3, and 0.1 mg/mL were made by diluting the 1 mg/mL solution using saline as diluent. A 10 mg/mL solution of MSI-1857 was made in saline.
Solutions of MSI-1857 at concentrations of 6.7, 3.3, 3, 2, and 1 mg/mL were made by diluting the 10 mg/mL solution using saline as diluent.
Mice (four mice per dose group) were intraperitoneally administered MSI-344 or MSI-1857 using an injection volume of 10 mL/kg of the appropriate solution concentration on a twice per week (Groups 1 through 7) or thrice per week (Groups 8 through 15) dosing schedule every week for 20 weeks. Survival was monitored daily and body weights were recorded three times per week An interim analysis was performed at 3 weeks and the results of this interim analysis is presented in the present report.

SMILES | MIC P. aeruginosa ATCC 27853 [1] [µg/mL] | MIC P. gingivalis ATTC 33277 (P. gingivalis) [µg/mL] | MIC C. albicans ATCC 90028 (C. albicans ATCC 90028) [µg/mL] | MIC S. aureus ATCC 29213 (S. aureus ATCC 29213) [µg/mL] | MIC E. coli ATCC 25922 [2] [µg/mL] | lethality [3]
CCCCCCCC(=O)N[C@@H](CCCCNCS(=O)(=O)O)C(=O)N[C@H](C(=O)N[C@@H](C)C(=O)NCC(=O)N[C@@H](CCCCNCS(=O)(=O)O)C(=O)N[C@H](C(=O)N[C@@H](C)C(=O)N[C@@H](CCCCNCS(=O)(=O)O)C(=O)N[C@H](C(=O)N[C@@H](C)C(=O)NCC(=O)N[C@@H](CCCCNCS(=O)(=O)O)C(=O)N[C@H](C(=O)N[C@@H](C)C(=O)N[C@@H](CCCCNCS(=O)(=O)O)C(=O)N[C@H](C(=O)N[C@@H](C)C(=O)NCC(=O)N[C@@H](CCCCNCS(=O)(=O)O)C(=O)N[C@H](C(=O)N[C@@H](C)C(N)=O)[C@@H](C)CC)[C@@H](C)CC)[C@@H](C)CC)[C@@H](C)CC)[C@@H](C)CC)[C@@H](C)CC [Compound 1662] (Octanoyl-[X1]IAG[X1]IA[X1]IAG[X1]IA[X1]IAG[X1]IA-NH2) | 32 (≈ 11.6 µM) | 8 (≈ 2.91 µM) | 64 (≈ 23.2 µM) | 4 (≈ 1.45 µM) | 8 (≈ 2.91 µM) | 
O=S([O-])S(=O)(=O)[O-].[Na+].[Na+] [Sodium metabisulfite, reference compound] |  |  |  |  |  | no lethality
